Assay results as given in US4439434A, “Cephalosporin derivative and pharmaceutical composition containing the derivative” (Kureha Kagaku Kogyo Kabushiki Kaisha, priority 1981, dated 1984).
Values after ≈ are worked out from the molar mass of the structure shown.

Columns and labels:
[1] = test system: ICR-JCL mouse; conditions: conventional cephalosporin antibiotic, route not stated; cited from earlier work
[2] = test system: Bacteroides; assay: Effect on the intestinal bacterial colonies: Bacteroides in feces; assay type: in vivo; conditions: mice, oral 500 mg/kg/day for two consecutive days, feces one day after administration
Protocol: (§1) Each of the cephalosporin derivatives of the invention prepared in Examples 1 to 10 was orally administered to mice (one group consisting of five female ICR mice of 6-week-old) for two consecutive days at a dose of 500 mg/kg/day.
(§2) Before and one day after the administration, feces of each mouse were collected and diluted with an anaerobic diluent (phosphoric buffer solution) of 100 times volume and the diluted feces were ground. 0.1 ml of the diluted and ground feces was smeared on each culture medium shown in Table 1 and cultured aerobically or anaerobically (according to the anaerobic glove box method) under each condition shown in Table 1 and the number of each bacterium shown in Table 1 was counted.
Bacteroides NBGT agar anaerobic, 37° C.,

[3] = test system: Escherichia coli; assay: Effect on the intestinal bacterial colonies: Escherichia coli in feces; assay type: in vivo; conditions: mice, oral 500 mg/kg/day for two consecutive days, feces one day after administration
Protocol: as §1, §2
DHL agar aerobic, 37° C.,

[4] = test system: Pseudomonas aeruginosa; assay: Effect on the intestinal bacterial colonies: Pseudomonas aeruginosa in feces; assay type: in vivo; conditions: mice, oral 500 mg/kg/day for two consecutive days, feces one day after administration
Protocol: as §1, §2
NAC agar aerobic, 37° C.,

[5] = test system: Streptococcus spp.; assay: Effect on the intestinal bacterial colonies: Streptococcus spp. in feces; assay type: in vivo; conditions: mice, oral 500 mg/kg/day for two consecutive days, feces one day after administration
Protocol: as §1, §2
TATAC agar aerobic, 37° C.,

[6] = test system: Staphylococcus aureus IAM 1011; assay: Activation by rat liver homogenate (S-9 mix), proliferation-inhibiting circle, penicillin cup method; assay type: cell-based; conditions: incubated with rat liver S-9 mix, 37° C. 20 min; circle diameter relative to the starting compound
Protocol: As an activating enzyme of metabolism, a rat liver homogenate (S-9, manufactured by Oriental Yeast Company, Japan) was used in the following composition per 1 ml (hereinafter referred to as S-9 mix). 0.1 ml of the solution of each of the cephalosporin derivatives of the invention prepared in Examples 1 to 10 at a concentration of 100 μg/ml was mixed with 0.9 ml of S-9 mix or 0.9 ml of 0.1 M phosphoric buffer solution (as a control) and the obtained mixture was incubated at 37° C. for 20 min. with shaking. Staphylococcus aureus IAM 1011 was inoculated into a Mueller-Hinton's culture medium and cultured at 37° C. for 18 hours. The culture medium was adjusted to a cell concentration of 1×10^8 per 1 ml and mixed with 50 times by volume of Mueller-Hinton's agar culture medium to obtain an agar plate. A penicillin cup of 8 mm in diameter was placed on the agar plate prepared above, and into the cup 0.1 ml of the mixture containing the cephalosporin derivative prepared above was introduced and allowed to stand at 4° C. for 2 hours, and then cultured at 37° C. for 18 hours to measure the diameter of a circle in which the proliferation of bacteria was inhibited (proliferation-inhibiting circle). In Table 4, the proliferation-inhibiting index is shown in the ratio (%) of the diameter of the proliferation-inhibiting circle obtained by using each of the cephalosporin derivatives of the invention to that obtained by using each of the starting compound in preparing each of the cephalosporin derivatives of the invention.

[7] = test system: Escherichia coli IFO 12734; assay: Antibacterial activity (MIC, agar plate) against E. coli; assay type: cell-based; conditions: Escherichia coli IFO 12734, Mueller-Hinton agar, 37° C., 18 to 24 hours; unit assumed
Protocol: (§3) Antibacterial activity of each of the cephalosporin derivatives of the invention prepared in Examples 1 to 10 was examined against the following two bacteria according to the standard method of Japan Society of Chemitherapy: Escherichia coli IFO 12734 and Staphylococcus aureus IAM 1011.
(§4) Each bacterial strain was inoculated into the Mueller-Hinton's culture medium and cultured at 37° C. for 18 to 48 hours. The cultured medium was diluted so as to contain 1×10^6 cells of the bacteria per one ml, and the obtained medium was used as the bacterial specimen.
(§5) Agar plates were prepared by adding one part by weight of each solution of the cephalosporin derivative of the invention at a predetermined concentration to nine parts by weight of Mueller-Hinton's culture medium.
(§6) A loopful amount of the bacterial specimen prepared above was smeared to make a streak of about 2 cm on each agar plate prepared above and cultured at 37° C. for 18 to 24 hours.
(§7) The minimum concentration for completely inhibiting proliferation of the bacteria (referred to as MIC) was determined.

[8] = test system: Lactobacillus bifidus; assay: Effect on the intestinal bacterial colonies: Lactobacillus bifidus in feces; assay type: in vivo; conditions: mice, oral 500 mg/kg/day for two consecutive days, feces one day after administration
Protocol: as §1, §2
BS agar anaerobic, 37° C.,

[9] = test system: Lactobacillus acidophilus; assay: Effect on the intestinal bacterial colonies: Lactobacillus acidophilus in feces; assay type: in vivo; conditions: mice, oral 500 mg/kg/day for two consecutive days, feces one day after administration
Protocol: as §1, §2
Lactobacillus acidophilus
LBS agar anaerobic, 37° C.,

[10] = test system: Staphylococcus aureus IAM 1011; assay: Antibacterial activity (MIC, agar plate) against Staph. aureus; assay type: cell-based; conditions: Staphylococcus aureus IAM 1011, Mueller-Hinton agar, 37° C., 18 to 24 hours; unit assumed
Protocol: as §3, §4, §5, §6, §7

| MIC E. coli [7] | MIC Staph. aureus [10] | Compound | LD50 [1] | Logarithmic value of the number of bacterial cells per one g of feces, Bacteroides [2] | Logarithmic value of the number of bacterial cells per one g of feces, E. coli [3] | Logarithmic value of the number of bacterial cells per one g of feces, Ps. aeruginosa [4] | Logarithmic value of the number of bacterial cells per one g of feces, Strept. spp. [5] | Proliferation-inhibiting index (%) After adding S-9 mix [6] | Logarithmic value of the number of bacterial cells per one g of feces, L. bifidus [8] | Logarithmic value of the number of bacterial cells per one g of feces, L. acidophilus [9] |
| --- | --- | --- | --- | --- | --- | --- | --- | --- | --- | --- |
|  |  | CC(=O)OCC1=C(C(=O)O)N2C(=O)[C@@H](NC(=O)Cc3cccs3)[C@H]2SC1 [cephalotin sodium] | about 5 g/kg |  |  |  |  |  |  |  |
| ≥ 100 mg/L | ≥ 12.5 mg/L | CCOC(=O)c1ccc(NC(=O)C2=C(COC(C)=O)CSC3C(NC(=O)Cc4cccs4)C(=O)N23)cc1 (stereo not shown) [Example 3, N-(4-carboethoxyphenyl)-7-(thienyl-2-acetamido)cephalosporanic acid amide] |  | 8.1 | 6.5 | < 3.0 | 6.5 | ++ (33-66) | 8.3 | 9.0 |
| ≥ 100 mg/L | 12.5 mg/L (≈ 21.8 µM) | CC(=O)OCC1=C(C(=O)Nc2ccc(C(=O)NCC(=O)O)cc2)N2C(=O)C(NC(=O)Cc3cccs3)C2SC1 (stereo not shown) [Example 8, N-(4-carboxymethylcarbamoylphenyl)-7-(thienyl-2-acetamido)cephalosporanic acid amide] |  | 8.1 | 6.4 | < 3.0 | 6.8 | ++ (33-66) | 8.5 | 9.1 |
| ≥ 100 mg/L | 1.56 mg/L (≈ 2.95 µM) | CC(=O)OCC1=C(C(=O)Nc2ccc(CC(=O)O)cc2)N2C(=O)C(NC(=O)Cc3cccs3)C2SC1 (stereo not shown) [Example 5, N-(4-carboxymethylphenyl)-7-(thienyl-2-acetamido)cephalosporanic acid amide] |  | 8.2 | 6.5 | < 3.0 | 6.8 | +++ (66-100) | 8.4 | 9.1 |
| ≥ 100 mg/L | ≥ 12.5 mg/L | CC(=O)OCC1=C(C(=O)Nc2ccc(O)cc2)N2C(=O)C(NC(=O)Cc3cccs3)C2SC1 (stereo not shown) [Example 1, N-(4-hydroxyphenyl)-7-(thienyl-2-acetamido)cephalosporanic acid amide] |  | 8.7 | 6.5 | < 3.0 | 6.3 | +++ (66-100) | 8.2 | 8.9 |
| ≥ 100 mg/L | 6.25 mg/L (≈ 11.2 µM) | CCOC(=O)Cc1ccc(NC(=O)C2=C(COC(C)=O)CSC3C(NC(=O)Cc4cccs4)C(=O)N23)cc1 (stereo not shown) [Example 7, N-(4-carboethoxymethylphenyl)-7-(thienyl-2-acetamido)cephalosporanic acid amide] |  | 8.8 | 6.4 | < 3.0 | 6.6 | +++ (66-100) | 8.3 | 8.9 |

| Compound | MIC E. coli [7] | MIC Staph. aureus [10] | LD50 [1] | Logarithmic value of the number of bacterial cells per one g of feces, Bacteroides [2] | Logarithmic value of the number of bacterial cells per one g of feces, E. coli [3] | Logarithmic value of the number of bacterial cells per one g of feces, Ps. aeruginosa [4] | Logarithmic value of the number of bacterial cells per one g of feces, Strept. spp. [5] | Proliferation-inhibiting index (%) After adding S-9 mix [6] | Logarithmic value of the number of bacterial cells per one g of feces, L. bifidus [8] | Logarithmic value of the number of bacterial cells per one g of feces, L. acidophilus [9] |
| --- | --- | --- | --- | --- | --- | --- | --- | --- | --- | --- |
| CCCCOC(=O)c1ccc(NC(=O)C2=C(COC(C)=O)CSC3C(NC(=O)Cc4cccs4)C(=O)N23)cc1 (stereo not shown) [Example 4, N-(4-carbo-n-butoxyphenyl)-7-(thienyl-2-acetamido)cephalosporanic acid amide] | ≥ 100 mg/L | ≥ 12.5 mg/L |  | 8.1 | 6.4 | < 3.0 | 6.7 | ++ (33-66) | 8.5 | 9.1 |
